From patent US9943525B2, “Composition for reducing cell senescence comprising Rho-kinase inhibitor and use thereof” (Samsung Electronics Co., Ltd., priority 2014, dated 2018)
“Also recorded” adds a separate entry of the source.

What was measured:
[1] = tested on: full-thickness punch-biopsy wounds on the dorsal skin of old (19 months old) male C57BL/6J mice; test: cutaneous wound healing assay in aged mice; format: in vivo, mouse; conditions: 0.5 mL 10 μM in 30% Pluronic gel applied to wounds every day, FIG. 23
Experimental: To further test whether ROCK inhibitor can promote cutaneous wound healing in old (19 months old) male mice (C57BL/6J mice), four full-thickness punch-biopsy wounds (8 mm in diameter)(four wound sites/mouse, five mice/group) were created on the dorsal skin of mouse, 0.5 mL 10 μM Y-27632 in 30% Pluronic gel (Pluronic F-127 Sigma, P2443-1KG) was applied to wounds every day, and then covered the wounds with Telfa sponges (Kendall Health Care, Mansfield, Mass., USA). DMSO was used as a control. All animal studies were reviewed and approved by the […] Animal Care and Use Committee of SKKU School of Medicine (SUSM). SUSM is an Association for Assessment and Accreditation of Laboratory Animal Care international accredited facility and abides by the Institute for Laboratory Animal Research guide. Wounds were photographed for 10 days. Immunohistochemistry analyses were performed on 5 μm paraffin embedded sections as described previously (Lin et. al., 2004. Developmental Biology 270, 474-486). Primary antibodies used for immunohistochemistry were mouse anti-α-smooth muscle actin (Sigma, F3777-2ML, 1:500), and mouse anti-PCNA (Santa Cruz Biotechnology, SC-56, 1:500). Secondary antibodies used for immunohistochemistry were EnVisionTM Detection System (DAKO, […]). […]

[2] = tested on: wound tissue of old (19 months old) male C57BL/6J mice; test: immunohistochemistry and Masson's trichrome staining of wound tissue sections; format: in vivo, mouse; conditions: 10 μM in 30% Pluronic gel topical daily
Experimental: To further test whether ROCK inhibitor can promote cutaneous wound healing in old (19 months old) male mice (C57BL/6J mice), four full-thickness punch-biopsy wounds (8 mm in diameter)(four wound sites/mouse, five mice/group) were created on the dorsal skin of mouse, 0.5 mL 10 μM Y-27632 in 30% Pluronic gel (Pluronic F-127 Sigma, P2443-1KG) was applied to wounds every day, and then covered the wounds with Telfa sponges (Kendall Health Care, Mansfield, Mass., USA). DMSO was used as a control. All animal studies were reviewed and approved by the […] Animal Care and Use Committee of SKKU School of Medicine (SUSM). SUSM is an Association for Assessment and Accreditation of Laboratory Animal Care international accredited facility and abides by the Institute for Laboratory Animal Research guide. Wounds were photographed for 10 days. Immunohistochemistry analyses were performed on 5 μm paraffin embedded sections as described previously (Lin et. al., 2004. Developmental Biology 270, 474-486). Primary antibodies used for immunohistochemistry were mouse anti-α-smooth muscle actin (Sigma, F3777-2ML, 1:500), and mouse anti-PCNA (Santa Cruz Biotechnology, SC-56, 1:500). Secondary antibodies used for immunohistochemistry were EnVisionTM Detection System (DAKO, […]). Masson's trichrome staining was performed according to the manufacturer's instructions (Polysciences Inc., Warrington Pa., USA). An immunohistochemical analysis was carried out to investigate the mechanism underlying the wound-healing process. […] FIG. 24 represents an immunohistochemical experimental result showing that Y-27632 treatment plays an important role in wound healing in old mouse (19 months old). Wound tissue sections were also subjected to Masson's trichrome staining to assess collagen deposition in the cross-sectional area of remodeled tissue.

Question: What does the source list for `C[C@@H](N)[C@H]1CC[C@H](C(=O)Nc2ccncc2)CC1` [Y-27632, (1R,4R)-4-((R)-1-aminoethyl)-N-(pyridin-4-yl)cyclohexanecarboxamide]?
Answer: wound healing (wound appearance) ([1]; day 10, DMSO-treated wounds still showed remnants of scabs): near completion; wound healing process (wound size) ([1]; early points (days 3), vs DMSO, P<0.01): markedly accelerated; Masson's trichrome staining (collagen deposition) ([2]; DMSO: diffuse in granulation tissue, FIG. 24): strong in the dermis area; site of proliferation by PCNA immunolabeling ([2]; DMSO: selective proliferation in granulation tissue, FIG. 24): proliferation was observed in the supra basal area of epidermis; α-SMA immunoreactivity in wound area ([2]; control: high in granulation tissue, FIG. 24): diffuse in the dermis and was correlated with the appearance of collagen fibers; collagen thickness ([2]; relative to DMSO, P<0.01, FIG. 25): increased; also recorded: more dense and thicker collagen; number of PCNA-positive cells in the epidermis ([2]; vs control group, P<0.01, FIG. 26): higher
